Assay results published in patent US8614327B2 (Vertex Pharmaceuticals Incorporated, priority 2004, dated 2013).

Molecular target: T1, ΔF508-CFTR (Homo sapiens, UniProt P13569, DEL508-508)
T1 construct: expressed in transfected cells
Assay: Membrane potential optical (FRET/VIPR) assay, identification of potentiator compounds
Type: cell-based
Conditions: Table 3, assay not given; for % Activity: relative efficacy
Outline: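 NIH3T3 mouse fibroblasts stably expressing ΔF508-CFTR, temperature-corrected 24 h at 27° C., read on VIPR by FRET between CC2-DMPE and DiSBAC2(3). Potentiators identified in a double-addition format, first adding chloride-free (gluconate) medium with or without compound.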

T1 sequence (P13569 with tags, fused parts or gaps DEL508-508): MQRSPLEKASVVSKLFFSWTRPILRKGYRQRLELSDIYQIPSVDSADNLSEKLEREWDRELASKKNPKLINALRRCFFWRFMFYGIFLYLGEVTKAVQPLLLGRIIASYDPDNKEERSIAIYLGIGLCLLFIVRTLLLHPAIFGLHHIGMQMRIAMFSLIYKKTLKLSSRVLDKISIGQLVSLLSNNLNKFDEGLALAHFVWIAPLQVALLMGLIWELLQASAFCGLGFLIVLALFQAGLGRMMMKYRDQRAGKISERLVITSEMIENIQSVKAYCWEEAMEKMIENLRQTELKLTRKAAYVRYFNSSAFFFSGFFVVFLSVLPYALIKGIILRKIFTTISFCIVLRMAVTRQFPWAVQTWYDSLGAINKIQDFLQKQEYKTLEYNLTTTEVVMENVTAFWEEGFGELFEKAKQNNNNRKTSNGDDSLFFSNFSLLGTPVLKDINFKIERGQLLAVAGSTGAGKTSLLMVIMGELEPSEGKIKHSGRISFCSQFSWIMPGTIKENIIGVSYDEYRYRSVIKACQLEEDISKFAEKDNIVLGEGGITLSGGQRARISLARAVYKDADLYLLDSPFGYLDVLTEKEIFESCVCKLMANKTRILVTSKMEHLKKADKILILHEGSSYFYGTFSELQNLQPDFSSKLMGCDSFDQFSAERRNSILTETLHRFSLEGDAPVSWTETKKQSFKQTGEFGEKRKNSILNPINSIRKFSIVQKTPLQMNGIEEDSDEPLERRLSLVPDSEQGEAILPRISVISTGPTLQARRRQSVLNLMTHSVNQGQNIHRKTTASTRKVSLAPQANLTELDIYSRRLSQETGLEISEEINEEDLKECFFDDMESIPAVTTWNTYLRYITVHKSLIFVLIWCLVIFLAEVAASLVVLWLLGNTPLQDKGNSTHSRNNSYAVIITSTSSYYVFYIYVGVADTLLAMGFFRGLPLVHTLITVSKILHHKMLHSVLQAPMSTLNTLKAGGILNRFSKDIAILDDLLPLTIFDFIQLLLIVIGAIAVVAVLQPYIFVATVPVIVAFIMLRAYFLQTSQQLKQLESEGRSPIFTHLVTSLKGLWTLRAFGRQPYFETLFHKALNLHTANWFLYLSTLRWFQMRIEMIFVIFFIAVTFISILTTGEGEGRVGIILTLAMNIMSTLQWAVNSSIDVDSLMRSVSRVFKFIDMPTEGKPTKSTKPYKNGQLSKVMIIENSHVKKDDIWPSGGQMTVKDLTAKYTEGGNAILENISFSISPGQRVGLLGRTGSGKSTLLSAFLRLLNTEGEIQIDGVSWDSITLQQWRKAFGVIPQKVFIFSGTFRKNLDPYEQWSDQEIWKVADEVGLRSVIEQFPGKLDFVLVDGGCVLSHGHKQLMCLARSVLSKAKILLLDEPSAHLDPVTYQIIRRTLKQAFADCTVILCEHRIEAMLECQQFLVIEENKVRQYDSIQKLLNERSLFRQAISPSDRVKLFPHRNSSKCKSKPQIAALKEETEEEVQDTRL

| SMILES | EC50 [µM] | % Activity |
| --- | --- | --- |
| CCOC(=O)Cc1c[nH]c2cc(NC(=O)c3c[nH]c4ccccc4c3=O)ccc12 [Compound 207, 2-[6-[(4-oxo-1H-quinolin-3-yl)carbonylamino]-1H-indol-3-yl]acetic acid ethyl ester] | < 10 | ++ (between 25% to 100%) |
| Cc1cc(C2C3CC4CC(C3)CC2C4)c(O)cc1NC(=O)c1c[nH]c2ccccc2c1=O (centres unmarked) [Compound 208, N-[4-(2-adamantyl)-5-hydroxy-2-methyl-phenyl]-4-oxo-1H-quinoline-3-carboxamide] | < 10 | ++ (between 25% to 100%) |
| O=C(Nc1ccc(CO)cc1)c1c[nH]c2ccccc2c1=O [Compound 209, N-[4-(hydroxymethyl)phenyl]-4-oxo-1H-quinoline-3-carboxamide] | 10 to 25 | ++ (between 25% to 100%) |
| COc1nc2ccccc2c(OC)c1C(=O)Nc1ccccc1-c1ccccc1 [Compound 210, 2,4-dimethoxy-N-(2-phenylphenyl)-quinoline-3-carboxamide] | 10 to 25 | ++ (between 25% to 100%) |
| CC1=NN(c2cccc(NC(=O)c3c[nH]c4ccccc4c3=O)c2)C(=O)C1 [Compound 212, N-[3-(3-methyl-5-oxo-1,4-dihydropyrazol-1-yl)phenyl]-4-oxo-1H-quinoline-3-carboxamide] | 25 to 60 | + (<25%) |
| O=C(Nc1ccccc1-c1cc(Cl)ccc1Cl)c1c[nH]c2ccccc2c1=O [Compound 213, N-[2-(2,5-dichlorophenyl)phenyl]-4-oxo-1H-quinoline-3-carboxamide] | < 10 | ++ (between 25% to 100%) |
| CS(=O)(=O)Nc1cccc(NC(=O)c2c[nH]c3ccccc3c2=O)c1 [Compound 214, N-(3-methylsulfonylaminophenyl)-4-oxo-1H-quinoline-3-carboxamide] |  | ++ (between 25% to 100%) |
| O=C(Nc1ccccc1)c1c[nH]c2ccccc2c1=O [Compound 215, 4-Oxo-N-phenyl-1H-quinoline-3-carboxamide] | < 10 | ++ (between 25% to 100%) |
| O=C(Nc1nc2ccccc2[nH]1)c1c[nH]c2ccccc2c1=O [Compound 216, N-(3H-benzoimidazol-2-yl)-4-oxo-1H-quinoline-3-carboxamide] | 25 to 60 | + (<25%) |
| CC1(c2cc(F)c(NC(=O)c3c[nH]c4ccc(F)cc4c3=O)cc2O)CCCCC1 [Compound 218, 6-fluoro-N-[2-fluoro-5-hydroxy-4-(1-methylcyclohexyl)-phenyl]-4-oxo-1H-quinoline-3-carboxamide] | < 10 | ++ (between 25% to 100%) |
| O=C(Nc1cnccn1)c1c[nH]c2ccccc2c1=O [Compound 219, 4-oxo-N-pyrazin-2-yl-1H-quinoline-3-carboxamide] | 25 to 60 | + (<25%) |
| CSc1ccc(-c2ccccc2NC(=O)c2c[nH]c3ccccc3c2=O)cc1 [Compound 223, N-[2-(4-methylsulfanylphenyl)phenyl]-4-oxo-1H-quinoline-3-carboxamide] | < 10 | ++ (between 25% to 100%) |
| O=C(Nc1ccc(-c2ccccc2CNC(=O)C(F)(F)F)cc1)c1c[nH]c2ccccc2c1=O [Compound 224, 4-oxo-N-[4-[2-[(2,2,2-trifluoroacetyl)aminomethyl]phenyl]phenyl]-1H-quinoline-3-carboxamide] | < 10 | ++ (between 25% to 100%) |
| CCCc1ccc(NC(=O)c2c[nH]c3ccccc3c2=O)cc1 [Compound 226, 4-oxo-N-(4-propylphenyl)-1H-quinoline-3-carboxamide] |  | ++ (between 25% to 100%) |
| O=C(Nc1ccccc1-c1nc2ccccc2[nH]1)c1c[nH]c2ccccc2c1=O [Compound 227, N-[2-(3H-benzoimidazol-2-yl)phenyl]-4-oxo-1H-quinoline-3-carboxamide] | 25 to 60 | + (<25%) |
| O=C(Nc1ccccc1C(O)c1ccccc1)c1c[nH]c2ccccc2c1=O (centres unmarked) [Compound 228, N-[2-(hydroxy-phenyl-methyl)phenyl]-4-oxo-1H-quinoline-3-carboxamide] | < 10 | ++ (between 25% to 100%) |
| CC(=O)N1CCc2ccc(NC(=O)c3c[nH]c4ccccc4c3=O)cc21 [Compound 233, N-(1-acetylindolin-6-yl)-4-oxo-1H-quinoline-3-carboxamide] | 10 to 25 | + (<25%) |
| O=C(Nc1cc2[nH]ccc2cc1C(F)(F)F)c1c[nH]c2ccccc2c1=O [Compound 234, 4-oxo-N-[5-(trifluoromethyl)-1H-indol-6-yl]-1H-quinoline-3-carboxamide] | < 10 | ++ (between 25% to 100%) |
| CC(C)(C)OC(=O)N1CCC2(CCNc3cc(NC(=O)c4c[nH]c5ccccc5c4=O)ccc32)CC1 [Compound 238, 7′-[(4-oxo-1H-quinolin-3-ylcarbonyl)amino]-spiro[piperidine-4,4′(1′H)-quinoline], 2′,3′-dihydro-carboxylic acid tert-butyl ester] | < 10 | ++ (between 25% to 100%) |
| O=C(Nc1ccccc1OCc1ccccc1)c1c[nH]c2ccccc2c1=O [Compound 240, N-(2-benzyloxyphenyl)-4-oxo-1H-quinoline-3-carboxamide] | < 10 | ++ (between 25% to 100%) |
| O=C(Nc1ccc2c3c([nH]c2c1)CCCC3)c1c[nH]c2ccccc2c1=O [Compound 244, 4-oxo-N-(6,7,8,9-tetrahydro-5H-carbazol-2-yl)-1H-quinoline-3-carboxamide] | < 10 | ++ (between 25% to 100%) |

Now from value to compound:

| EC50 [µM] | % Activity | SMILES |
| --- | --- | --- |
| < 10 | ++ (between 25% to 100%) | COc1ccc(C(C)(C)C)cc1NC(=O)c1c[nH]c2ccccc2c1=O [Compound 211, N-(2-methoxy-5-tert-butyl-phenyl)-4-oxo-1H-quinoline-3-carboxamide] |
| 10 to 25 | ++ (between 25% to 100%) | O=C(Nc1ccc2[nH]ncc2c1)c1c[nH]c2ccccc2c1=O [Compound 217, N-(1H-indazol-5-yl)-4-oxo-1H-quinoline-3-carboxamide] |
| < 10 | ++ (between 25% to 100%) | CC(C)(C)c1cc(C(C)(C)C)c(NC(=O)c2c[nH]c3ccccc3c2=O)c(O)c1O [Compound 220, N-(2,3-dihydroxy-4,6-ditert-butyl-phenyl)-4-oxo-1H-quinoline-3-carboxamide] |
| < 10 | ++ (between 25% to 100%) | CCCc1ccc(NC(=O)c2c[nH]c3ccccc3c2=O)cc1NC(=O)OC [Compound 221, [5-[(4-oxo-1H-quinolin-3-yl)carbonylamino]-2-propyl-phenyl]aminoformic acid methyl ester] |
| 10 to 25 | ++ (between 25% to 100%) | N#Cc1c(Cl)cccc1NC(=O)c1c[nH]c2ccccc2c1=O [Compound 222, N-(3-chloro-2-cyano-phenyl)-4-oxo-1H-quinoline-3-carboxamide] |
| < 10 | ++ (between 25% to 100%) | CCOC(=O)Nc1cc(NC(=O)c2c[nH]c3ccccc3c2=O)ccc1C(C)C [Compound 225, [2-isopropyl-5-[(4-oxo-1H-quinolin-3-yl)carbonylamino]phenyl]aminoformic acid ethyl ester] |
| < 10 | ++ (between 25% to 100%) | CSc1ccccc1NC(=O)c1c[nH]c2ccccc2c1=O [Compound 229, N-(2-methylsulfanylphenyl)-4-oxo-1H-quinoline-3-carboxamide] |
| 10 to 25 | ++ (between 25% to 100%) | Cc1cc2cc(NC(=O)c3c[nH]c4ccccc4c3=O)ccc2[nH]1 [Compound 230, N-(2-methyl-1H-indol-5-yl)-4-oxo-1H-quinoline-3-carboxamide] |
| < 10 | ++ (between 25% to 100%) | COC(=O)c1cccc(-c2cc(C(C)(C)C)c(O)cc2NC(=O)c2c[nH]c3ccccc3c2=O)c1 [Compound 231, 3-[4-hydroxy-2-[(4-oxo-1H-quinolin-3-yl)carbonylamino]-5-tert-butyl-phenyl]benzoic acid methyl ester] |
| < 10 | ++ (between 25% to 100%) | CC(C)c1ccc(NC(=O)c2c[nH]c3ccccc3c2=O)cn1 [Compound 235, N-(6-isopropyl-3-pyridyl)-4-oxo-1H-quinoline-3-carboxamide] |
| < 10 | ++ (between 25% to 100%) | O=C(Nc1ccc(C(F)(F)F)cc1)c1c[nH]c2ccccc2c1=O [Compound 236, 4-oxo-N-[4-(trifluoromethyl)phenyl]-1H-quinoline-3-carboxamide] |
|  | ++ (between 25% to 100%) | COc1ccccc1-c1cc2cc[nH]c2cc1NC(=O)c1c[nH]c2ccccc2c1=O [Compound 237, N-[5-(2-methoxyphenyl)-1H-indol-6-yl]-4-oxo-1H-quinoline-3-carboxamide] |
| < 10 | ++ (between 25% to 100%) | COC(=O)Nc1ccc(C(C)C)c(NC(=O)c2c[nH]c3ccccc3c2=O)c1 [Compound 239, [4-isopropyl-3-[(4-oxo-1H-quinolin-3-yl)carbonylamino]phenyl]aminoformic acid methyl ester] |
| 10 to 25 | ++ (between 25% to 100%) | O=C(Nc1cccc2cccnc12)c1c[nH]c2ccccc2c1=O [Compound 241, 4-oxo-N-(8-quinolyl)-1H-quinoline-3-carboxamide] |
| < 10 | ++ (between 25% to 100%) | Nc1cc(NC(=O)c2c[nH]c3ccccc3c2=O)c(Cl)cc1Cl [Compound 242, N-(5-amino-2,4-dichloro-phenyl)-4-oxo-1H-quinoline-3-carboxamide] |
| < 10 | ++ (between 25% to 100%) | O=C(Nc1ccccc1Oc1ccc(Cl)cc1Cl)c1c[nH]c2ccccc2c1=O [Compound 245, N-[2-(2,4-dichlorophenoxy)phenyl]-4-oxo-1H-quinoline-3-carboxamide] |
